From patent publication US20030181353A1, “Composition & use as analgesic, anti-inflammatory, wound healing agent, for treatment of heart conditions, assessment of heart function & tissue & cell protection & healing & reperfusion, mood disorders & symptoms & sequelae of menopause & for inducing unconsciousness, sleep & anesthesia” (priority 1998, published 2003)

Test system: Intracellular Adenosine
Assay type: in vivo, rat

Question: With `Nc1nc(=O)c2c([nH]1)NCC(CNc1ccc(C(=O)N[C@@H](CCC(=O)O)C(=O)O)cc1)N2C=O` (mixture of isomers) [Follinic Acid (F.A.), folinic acid] as the compound, how does the “Adenosine levels in the heart, lung and brain” value (rat, in vivo, po) read?
Answer: The value was “dramatic increase in adenosine levels”.

Question: And the “Effect of co-administration of folinic acid on adenosine depletion” value (rats, co-administered with the depleting agent)?
Answer: Its value is “completely abrogated adenosine depletion”.

Question: And the “Effect of folinic acid administered alone on adenosine levels” value (rats, folinic acid alone, all organs studied)?
Answer: Its value is “increase in adenosine levels for all organs studied”.
